Experimental data from patent publication US20230398130A1, “METHODS AND COMPOSITIONS FOR DIFFERENTIATING STEM CELLS” (Massachusetts Institute of Technology, priority 2020, published 2023).

Legend:
ISC-enriched organoids [1] = assay: Primary screen, 384-well 2.5-D organoid differentiation (ENR+CD, 6 days): carbachol-induced lysozyme secretion (LYZ.S); type: cell-based, murine; conditions: for Dose.FC.LYZ.S / Dose.FC.LYZ.S (log 2 fold change): primary screen; for Dose.FC.LYZ.S: FC vs plate median; for Dose.FC.LYZ.S (log 2 fold change): vs plate median
From the text: (§1) High-throughput screening.

ISC-enriched organoids [2] = assay: Primary screen, 384-well 2.5-D organoid differentiation (ENR+CD, 6 days, Target Selective Inhibitor Library, vs whole-plate median): ATP (CellTiter-Glo 3D, CTG); conditions: for Dose.FC.CTG: FC vs plate median; for Z.CTG: standard z score of FC; for Dose.FC.CTG (log 2 fold change): vs plate median
ISC-enriched organoids [3] = assay: Primary screen, 384-well 2.5-D organoid differentiation (ENR+CD, 6 days): basal lysozyme secretion (LYZ.NS); type: cell-based, murine; conditions: for Dose.FC.LYZ.NS: FC vs plate median; for Z.LYZ.NS: standard z score of FC; for Dose.FC.LYZ.NS (log 2 fold change): vs plate median
From the text: as §1

[4] = dose 0.08 uM (1st of 4 lines per treatment; dose not printed in this part)
[5] = dose 0.40 uM (2nd of 4 lines per treatment; dose not printed in this part)
[6] = dose 2.00 uM (3rd of 4 lines per treatment; dose not printed in this part)
[7] = dose 10.00 uM (4th of 4 lines per treatment; dose not printed in this part)
[8] = primary screen, dose 0.08 uM, ENR+CD 6 days
[9] = primary screen, dose 0.40 uM, ENR+CD 6 days
[10] = primary screen, dose 2.00 uM, ENR+CD 6 days
[11] = primary screen, dose 10.00 uM, ENR+CD 6 days

Molecule: (−)-MK 801 Maleate
- SSMD.LYZ.S_Rep (strictly standardized mean difference) (ISC-enriched organoids [1]; [4]): 0.116
- Z.LYZ.S (standard z score) (ISC-enriched organoids [1]; [4]): 0.099
- SSMD.LYZ.S_Rep (strictly standardized mean difference) (ISC-enriched organoids [1]; [5]): −0.976
- Z.LYZ.S (standard z score) (ISC-enriched organoids [1]; [5]): −1.159
- SSMD.LYZ.S_Rep (strictly standardized mean difference) (ISC-enriched organoids [1]; [6]): −1.187
- Z.LYZ.S (standard z score) (ISC-enriched organoids [1]; [6]): −2.160
- SSMD.LYZ.S_Rep (strictly standardized mean difference) (ISC-enriched organoids [1]; [7]): −1.768
- Z.LYZ.S (standard z score) (ISC-enriched organoids [1]; [7]): −2.604
- Dose.FC.LYZ.S (ISC-enriched organoids [1]; dose 0.08 uM, ENR+CD 6 days): 0.015 log 2 fold change
- Dose.FC.LYZ.S (ISC-enriched organoids [1]; dose 0.40 uM, ENR+CD 6 days): −0.179 log 2 fold change
- Dose.FC.LYZ.S (ISC-enriched organoids [1]; dose 2.00 uM, ENR+CD 6 days): −0.334 log 2 fold change
- Dose.FC.LYZ.S (ISC-enriched organoids [1]; dose 10.00 uM, ENR+CD 6 days): −0.403 log 2 fold change
- SSMD.CTG_Rep (strictly standardized mean difference) (ISC-enriched organoids [2]; [4]): 0.442
- SSMD.CTG_Rep (strictly standardized mean difference) (ISC-enriched organoids [2]; [5]): −1.342
- SSMD.CTG_Rep (strictly standardized mean difference) (ISC-enriched organoids [2]; [6]): −1.102
- SSMD.CTG_Rep (strictly standardized mean difference) (ISC-enriched organoids [2]; [7]): −1.696
- Dose.FC.CTG (ISC-enriched organoids [2]; [8]): 0.127 log 2 fold change
- Z.CTG (ISC-enriched organoids [2]; primary screen, dose 0.08 uM): 0.303
- Dose.FC.CTG (ISC-enriched organoids [2]; [9]): −0.377 log 2 fold change
- Z.CTG (ISC-enriched organoids [2]; primary screen, dose 0.40 uM): −0.899
- Dose.FC.CTG (ISC-enriched organoids [2]; [10]): −0.702 log 2 fold change
- Z.CTG (ISC-enriched organoids [2]; primary screen, dose 2.00 uM): −1.677
- Dose.FC.CTG (ISC-enriched organoids [2]; [11]): −0.936 log 2 fold change
- Z.CTG (ISC-enriched organoids [2]; primary screen, dose 10.00 uM): −2.236
- SSMD.LYZ.NS_Rep (strictly standardized mean difference) (ISC-enriched organoids [3]; [4]): 0.070
- SSMD.LYZ.NS_Rep (strictly standardized mean difference) (ISC-enriched organoids [3]; [5]): −0.550
- SSMD.LYZ.NS_Rep (strictly standardized mean difference) (ISC-enriched organoids [3]; [6]): −1.315
- SSMD.LYZ.NS_Rep (strictly standardized mean difference) (ISC-enriched organoids [3]; [7]): −1.708
- Dose.FC.LYZ.NS (ISC-enriched organoids [3]; [8]): 0.008 log 2 fold change
- Z.LYZ.NS (ISC-enriched organoids [3]; primary screen, dose 0.08 uM): 0.072
- Dose.FC.LYZ.NS (ISC-enriched organoids [3]; [9]): −0.099 log 2 fold change
- Z.LYZ.NS (ISC-enriched organoids [3]; primary screen, dose 0.40 uM): −0.864
- Dose.FC.LYZ.NS (ISC-enriched organoids [3]; [10]): −0.256 log 2 fold change
- Z.LYZ.NS (ISC-enriched organoids [3]; primary screen, dose 2.00 uM): −2.227
- Dose.FC.LYZ.NS (ISC-enriched organoids [3]; [11]): −0.259 log 2 fold change
- Z.LYZ.NS (ISC-enriched organoids [3]; primary screen, dose 10.00 uM): −2.255

Molecule: NCC(=O)Nc1ccc(-n2nc(C(F)(F)F)cc2-c2ccc3c(ccc4ccccc43)c2)cc1 [OSU-03012 (AR-12)]
- Dose.FC.LYZ.S (ISC-enriched organoids [1]; Dose 0.08 uM): 0.126 log 2 fold change
- Dose.FC.LYZ.S (ISC-enriched organoids [1]; Dose 0.40 uM): 0.113 log 2 fold change
- Dose.FC.LYZ.S (ISC-enriched organoids [1]; Dose 2.00 uM): 0.060 log 2 fold change
- Dose.FC.LYZ.S (ISC-enriched organoids [1]; Dose 10.00 uM): −0.128 log 2 fold change
- Dose.FC.CTG (ISC-enriched organoids [2]; Dose 0.08 uM, primary screen): 0.205 log 2 fold change
- Z.CTG (ISC-enriched organoids [2]; Dose 0.08 uM): 0.491
- Dose.FC.CTG (ISC-enriched organoids [2]; Dose 0.40 uM, primary screen): 0.114 log 2 fold change
- Z.CTG (ISC-enriched organoids [2]; Dose 0.40 uM): 0.272
- Dose.FC.CTG (ISC-enriched organoids [2]; Dose 2.00 uM, primary screen): 0.233 log 2 fold change
- Z.CTG (ISC-enriched organoids [2]; Dose 2.00 uM): 0.556
- Dose.FC.CTG (ISC-enriched organoids [2]; Dose 10.00 uM, primary screen): 0.078 log 2 fold change
- Z.CTG (ISC-enriched organoids [2]; Dose 10.00 uM): 0.185
- Dose.FC.LYZ.NS (ISC-enriched organoids [3]; Dose 0.08 uM, primary screen): 0.087 log 2 fold change
- Z.LYZ.NS (ISC-enriched organoids [3]; Dose 0.08 uM): 0.755
- Dose.FC.LYZ.NS (ISC-enriched organoids [3]; Dose 0.40 uM, primary screen): 0.033 log 2 fold change
- Z.LYZ.NS (ISC-enriched organoids [3]; Dose 0.40 uM): 0.285
- Dose.FC.LYZ.NS (ISC-enriched organoids [3]; Dose 2.00 uM, primary screen): 0.053 log 2 fold change
- Z.LYZ.NS (ISC-enriched organoids [3]; Dose 2.00 uM): 0.460
- Dose.FC.LYZ.NS (ISC-enriched organoids [3]; Dose 10.00 uM, primary screen): −0.049 log 2 fold change
- Z.LYZ.NS (ISC-enriched organoids [3]; Dose 10.00 uM): −0.423

Molecule: O=S(=O)(c1ccccc1)c1cnc2c(N3CCNCC3)cccc2c1 [SB742457]
- Dose.FC.LYZ.S (log 2 fold change) (ISC-enriched organoids [1]; Dose 0.08 uM): −0.055
- Dose.FC.LYZ.S (log 2 fold change) (ISC-enriched organoids [1]; Dose 0.40 uM): −0.029
- Dose.FC.LYZ.S (log 2 fold change) (ISC-enriched organoids [1]; Dose 2.00 uM): −0.003
- Dose.FC.LYZ.S (log 2 fold change) (ISC-enriched organoids [1]; Dose 10.00 uM): −0.006
- Z.CTG (standard z score) (ISC-enriched organoids [2]; Dose 0.08 uM, primary screen): −0.693
- Dose.FC.CTG (log 2 fold change) (ISC-enriched organoids [2]; Dose 0.08 uM, primary screen): −0.290
- Z.CTG (standard z score) (ISC-enriched organoids [2]; Dose 0.40 uM, primary screen): −0.300
- Dose.FC.CTG (log 2 fold change) (ISC-enriched organoids [2]; Dose 0.40 uM, primary screen): −0.126
- Z.CTG (standard z score) (ISC-enriched organoids [2]; Dose 2.00 uM, primary screen): −0.423
- Dose.FC.CTG (log 2 fold change) (ISC-enriched organoids [2]; Dose 2.00 uM, primary screen): −0.177
- Z.CTG (standard z score) (ISC-enriched organoids [2]; Dose 10.00 uM, primary screen): −0.702
- Dose.FC.CTG (log 2 fold change) (ISC-enriched organoids [2]; Dose 10.00 uM, primary screen): −0.294
- Z.LYZ.NS (standard z score) (ISC-enriched organoids [3]; Dose 0.08 uM, primary screen): 0.108
- Dose.FC.LYZ.NS (log 2 fold change) (ISC-enriched organoids [3]; Dose 0.08 uM, primary screen): 0.012
- Z.LYZ.NS (standard z score) (ISC-enriched organoids [3]; Dose 0.40 uM, primary screen): −0.537
- Dose.FC.LYZ.NS (log 2 fold change) (ISC-enriched organoids [3]; Dose 0.40 uM, primary screen): −0.062
- Z.LYZ.NS (standard z score) (ISC-enriched organoids [3]; Dose 2.00 uM, primary screen): 0.598
- Dose.FC.LYZ.NS (log 2 fold change) (ISC-enriched organoids [3]; Dose 2.00 uM, primary screen): 0.069
- Z.LYZ.NS (standard z score) (ISC-enriched organoids [3]; Dose 10.00 uM, primary screen): 0.115
- Dose.FC.LYZ.NS (log 2 fold change) (ISC-enriched organoids [3]; Dose 10.00 uM, primary screen): 0.013
